Laboratory results reported in the NIST ThermoML archive (doi:10.1021/je500886a).
± gives the expanded uncertainty stated by the source.

Test: mn = molality of the nth substance listed, in mol/kg
Settings: 101 kPa, Liquid

O=C[C@@H](O)[C@@H](O)[C@H](O)[C@H](O)CO [D-mannose] + O
viscosity (288.15 K, m1 = 0.0501): 1.168 ± 0.022 mPa·s
mass density (288.15 K, m1 = 0.05278): 1002.76 ± 0.23 kg/m3
mass density (288.15 K, m1 = 0.07151): 1004.03 ± 0.24 kg/m3
viscosity (288.15 K, m1 = 0.07151): 1.181 ± 0.022 mPa·s
mass density (288.15 K, m1 = 0.09003): 1005.28 ± 0.24 kg/m3
viscosity (288.15 K, m1 = 0.09353): 1.191 ± 0.022 mPa·s
mass density (288.15 K, m1 = 0.1065): 1006.39 ± 0.24 kg/m3
viscosity (288.15 K, m1 = 0.1123): 1.201 ± 0.022 mPa·s
viscosity (288.15 K, m1 = 0.1318): 1.214 ± 0.022 mPa·s
viscosity (288.15 K, m1 = 0.1515): 1.225 ± 0.023 mPa·s
viscosity (298.15 K, m1 = 0.0501): 0.912 ± 0.017 mPa·s
mass density (298.15 K, m1 = 0.05278): 1000.64 ± 0.23 kg/m3
mass density (298.15 K, m1 = 0.07151): 1001.9 ± 0.23 kg/m3
viscosity (298.15 K, m1 = 0.07151): 0.92 ± 0.018 mPa·s
mass density (298.15 K, m1 = 0.09003): 1003.14 ± 0.24 kg/m3
viscosity (298.15 K, m1 = 0.09353): 0.929 ± 0.018 mPa·s
mass density (298.15 K, m1 = 0.1065): 1004.23 ± 0.24 kg/m3
viscosity (298.15 K, m1 = 0.1123): 0.936 ± 0.018 mPa·s
mass density (298.15 K, m1 = 0.1277): 1005.63 ± 0.24 kg/m3
viscosity (298.15 K, m1 = 0.1318): 0.945 ± 0.018 mPa·s
viscosity (298.15 K, m1 = 0.1515): 0.952 ± 0.018 mPa·s
viscosity (308.15 K, m1 = 0.0501): 0.735 ± 0.014 mPa·s
mass density (308.15 K, m1 = 0.05278): 997.63 ± 0.23 kg/m3
mass density (308.15 K, m1 = 0.07151): 998.87 ± 0.23 kg/m3
viscosity (308.15 K, m1 = 0.07151): 0.742 ± 0.015 mPa·s
mass density (308.15 K, m1 = 0.09003): 1000.09 ± 0.23 kg/m3
viscosity (308.15 K, m1 = 0.09353): 0.749 ± 0.015 mPa·s
mass density (308.15 K, m1 = 0.1065): 1001.17 ± 0.23 kg/m3
viscosity (308.15 K, m1 = 0.1123): 0.756 ± 0.015 mPa·s
mass density (308.15 K, m1 = 0.1277): 1002.56 ± 0.23 kg/m3
viscosity (308.15 K, m1 = 0.1318): 0.761 ± 0.015 mPa·s
mass density (308.15 K, m1 = 0.1488): 1003.92 ± 0.24 kg/m3
viscosity (308.15 K, m1 = 0.1515): 0.766 ± 0.015 mPa·s
viscosity (318.15 K, m1 = 0.0501): 0.608 ± 0.012 mPa·s
mass density (318.15 K, m1 = 0.05278): 993.78 ± 0.24 kg/m3
mass density (318.15 K, m1 = 0.07151): 995.02 ± 0.24 kg/m3
viscosity (318.15 K, m1 = 0.07151): 0.613 ± 0.012 mPa·s
mass density (318.15 K, m1 = 0.09003): 996.23 ± 0.23 kg/m3
mass density (318.15 K, m1 = 0.1065): 997.3 ± 0.23 kg/m3
viscosity (318.15 K, m1 = 0.1123): 0.624 ± 0.013 mPa·s
mass density (318.15 K, m1 = 0.1277): 998.67 ± 0.23 kg/m3
viscosity (318.15 K, m1 = 0.1318): 0.628 ± 0.013 mPa·s
mass density (318.15 K, m1 = 0.1488): 1000.02 ± 0.23 kg/m3
viscosity (318.15 K, m1 = 0.1515): 0.634 ± 0.013 mPa·s

OC[C@@H](O)[C@@H](O)[C@H](O)[C@@H](O)CO [D-sorbitol] + O
viscosity (288.15 K, m1 = 0.0479): 1.169 ± 0.022 mPa·s
mass density (288.15 K, m1 = 0.05068): 1002.38 ± 0.35 kg/m3
viscosity (288.15 K, m1 = 0.06467): 1.183 ± 0.022 mPa·s
mass density (288.15 K, m1 = 0.07063): 1003.63 ± 0.36 kg/m3
viscosity (288.15 K, m1 = 0.08656): 1.197 ± 0.023 mPa·s
mass density (288.15 K, m1 = 0.09024): 1004.83 ± 0.36 kg/m3
mass density (288.15 K, m1 = 0.1057): 1005.77 ± 0.36 kg/m3
viscosity (288.15 K, m1 = 0.106): 1.21 ± 0.023 mPa·s
viscosity (288.15 K, m1 = 0.1249): 1.226 ± 0.023 mPa·s
mass density (288.15 K, m1 = 0.13): 1007.24 ± 0.36 kg/m3
viscosity (288.15 K, m1 = 0.1451): 1.239 ± 0.023 mPa·s
mass density (288.15 K, m1 = 0.1465): 1008.23 ± 0.37 kg/m3
viscosity (298.15 K, m1 = 0.0479): 0.914 ± 0.018 mPa·s
mass density (298.15 K, m1 = 0.05068): 1000.23 ± 0.35 kg/m3
viscosity (298.15 K, m1 = 0.06467): 0.921 ± 0.018 mPa·s
mass density (298.15 K, m1 = 0.07063): 1001.46 ± 0.35 kg/m3
viscosity (298.15 K, m1 = 0.08656): 0.932 ± 0.018 mPa·s
mass density (298.15 K, m1 = 0.09024): 1002.65 ± 0.35 kg/m3
mass density (298.15 K, m1 = 0.1057): 1003.58 ± 0.36 kg/m3
viscosity (298.15 K, m1 = 0.106): 0.942 ± 0.018 mPa·s
viscosity (298.15 K, m1 = 0.1249): 0.951 ± 0.018 mPa·s
mass density (298.15 K, m1 = 0.13): 1005.03 ± 0.36 kg/m3
viscosity (298.15 K, m1 = 0.1451): 0.959 ± 0.019 mPa·s
mass density (298.15 K, m1 = 0.1465): 1006.01 ± 0.36 kg/m3
viscosity (308.15 K, m1 = 0.0479): 0.736 ± 0.015 mPa·s
mass density (308.15 K, m1 = 0.05068): 997.2 ± 0.35 kg/m3
viscosity (308.15 K, m1 = 0.06467): 0.742 ± 0.015 mPa·s
mass density (308.15 K, m1 = 0.07063): 998.41 ± 0.35 kg/m3
viscosity (308.15 K, m1 = 0.08656): 0.75 ± 0.015 mPa·s
mass density (308.15 K, m1 = 0.09024): 999.59 ± 0.35 kg/m3
mass density (308.15 K, m1 = 0.1057): 1000.51 ± 0.35 kg/m3
viscosity (308.15 K, m1 = 0.106): 0.756 ± 0.015 mPa·s
viscosity (308.15 K, m1 = 0.1249): 0.765 ± 0.015 mPa·s
mass density (308.15 K, m1 = 0.13): 1001.95 ± 0.35 kg/m3
viscosity (308.15 K, m1 = 0.1451): 0.772 ± 0.015 mPa·s
mass density (308.15 K, m1 = 0.1465): 1002.93 ± 0.36 kg/m3
viscosity (318.15 K, m1 = 0.0479): 0.609 ± 0.013 mPa·s
mass density (318.15 K, m1 = 0.05068): 993.33 ± 0.36 kg/m3
viscosity (318.15 K, m1 = 0.06467): 0.614 ± 0.013 mPa·s
mass density (318.15 K, m1 = 0.07063): 994.53 ± 0.36 kg/m3
viscosity (318.15 K, m1 = 0.08656): 0.62 ± 0.013 mPa·s
mass density (318.15 K, m1 = 0.09024): 995.7 ± 0.35 kg/m3
mass density (318.15 K, m1 = 0.1057): 996.61 ± 0.35 kg/m3
viscosity (318.15 K, m1 = 0.106): 0.624 ± 0.013 mPa·s
viscosity (318.15 K, m1 = 0.1249): 0.631 ± 0.013 mPa·s
mass density (318.15 K, m1 = 0.13): 998.04 ± 0.35 kg/m3
viscosity (318.15 K, m1 = 0.1451): 0.635 ± 0.013 mPa·s
mass density (318.15 K, m1 = 0.1465): 999 ± 0.35 kg/m3
